Read-outs that look alike come from different tables or passages of the source.
Legend:
[1] = developed as an antidepressant; e.g. pyrosis, nausea and emesis; cited from earlier work
asthma patients [2] = settings: comparators, cited from earlier work
asthma patients [3] = experiment: Allergen challenge studies (LAR); format: in vivo, human; settings: Ariflo 15 mg bd
Excerpt: Legend: Data on cilomalast was taken from the protocol analysis in asthma patients on <652 mcg of ICS. Data on montelukast (MT), budesonide (BDP) and both was taken from a single study in the Singulair SBA that examined the effect of Singulair relative to inhaled […] corticosteroids.

[4] = tested on: patients with mild/moderate asthma; experiment: Cilomalast/low dose inhaled corticosteroid (ICS) dose-ranging study; format: in vivo, human
Excerpt: This was a phase IIB, randomised, placebo-controlled, dose-ranging study with a one-week single-blind placebo run-in, a 6-week double-blind treatment phase and a one-week follow-up phase in patients with mild/moderate asthma.
Study population: Male or female patients aged between 18 and 70 years, with mild to moderate asthma, who were not adequately controlled on low doses of inhaled corticosteroids (no greater than 500 mcg beclomethasone dipropionate/day or equivalent) were eligible. Patients were required to have a screening FEV1 of >50% and <80% predicted for height, age, sex and race and a 12% or greater reversibility after beta-2 agonist administration. Patients had to have a summary symptom score of 6 or more on 4 out of 7 days preceding the baseline visit to be randomised. The sample size was 300 evaluable patients.
cilomalast was dosed at 5 mg, 10 mg 15 mg twice daily for 6 weeks.
Subjects were on a median of 500 mcg of beclometbasone equivalent although the mean dose of ICS was 652 mcg.
Primary endpoint: change from baseline to endpoint in trough clinic expiratory volume in 1 second (FEV1), changes in clinic FEV1 every week and over a 4 hour period following first dose of double-blind medication.
The primary efficacy measure was defined as the change from baseline to endpoint in trough clinic forced expiratory volume in 1 second (FEV1). Changes in clinic FEV1 were also analysed at each week of the double-blind treatment phase and over a 4-hour period immediately following the first dose of double-blind medication. Secondary efficacy variables were use of inhaled/nebulised beta-2 agonist and overnight asthma symptoms. Tertiary efficacy variables were forced vital capacity (FVC), clinic peak expiratory flow rate (PEFR), forced expiratory flow at 25-75% (FEF25-75) and 75% (FEF75), domiciliary PEFR variability, domiciliary PEFR (morning and evening), summary symptom score (a composite score of overnight, morning and overall daytime asthma), morning asthma, overall daytime asthma, inhaled corticosteroid use, cough, wheeze, breathlessness/chest tightness, asthma exacerbation rates and global assessments by the physician and the patient.

[5] = tested on: patients with mild/moderate asthma on ≧800 mcg of beclomethasone; experiment: Cilomalast/high dose inhaled corticosteroid (ICS) study; format: in vivo, human
Procedure: R, DB, PC, DR in patients with mild/moderate asthma on ≧800 mcg of beclomethasone
cilomalast® doses were 5, 10 and 15 mg twice daily for 4 weeks.
Primary endpoint: trough clinic FEV1.
Secondary endpoints: morning PEFR, symptoms, PEFR variability, evening PEFR, clinic PEFR, FEF25-75, FEF75, rescue medication used.

COc1ccc(C2CNC(=O)C2)cc1OC1CCCC1 (stereo not shown) [rolipram]
side effects in clinical studies [1]: produces gastrointestinal effects

O=C(Nc1cccc2c(=O)cc(-c3nnn[nH]3)oc12)c1ccc(OCCCCc2ccccc2)cc1 [Ultair]
% Max fall LAR (treatment effect) (asthma patients [2]; ICS = 800 mcg budesonide): 10.7%
% Protection max fall LAR (asthma patients [2]; ICS = 800 mcg budesonide): 30.8%
% AUC of LAR (treatment effect) (asthma patients [2]): 42.4%
% Protection AUC LAR (asthma patients [2]): 42.6%

COc1ccc([C@]2(C#N)CC[C@@H](C(=O)O)CC2)cc1OC1CCCC1 [cilomalast, cis 4-cyano-4-(3-cyclopentyloxy-4-methoxyphenyl)cyclohexan-1-carboxylic acid]
% AUC of LAR (treatment effect) (asthma patients [3]): 3.5%
% Max fall LAR (treatment effect) (asthma patients [3]): 1.3%
% Protection AUC LAR (asthma patients [3]): NONE
% Protection max fall LAR (asthma patients [3]): NONE
4 hour FEV1, domiciliary PEFR, FEF25-75, physician and patient global assessment scores ([4]; 15 mg BID): Corroborating support
improvement in trough FEV1 at endpoint, ITT analysis, vs placebo ([4]; 15 mg BID, 6 weeks, on low dose ICS, p=0.062, no statistical improvement): 0.16 L
improvement in trough FEV1, excluding patients on ICS doses >500 mcg of beclamethasone ([4]; 15 mg BID, p=0.033, significant): 0.21 L
dose ordering of response for trough FEV1 at endpoint, ITT analysis ([4]; 5, 10, 15 mg twice daily for 6 weeks): dose-ordered
comparison with Singulair when added to low dose ICS ([4]; placebo group also improved in the cilomalast study): outperformed Singulair
4 hour clinic FEV1, clinic FVC, PEFR ([5]; 10 mg BID): numerically superior results
improvement in trough FEV1, repeated measures analysis, patients on <800 mcg of ICS excluded ([5]; 10 mg BID, p=0.009): 0.16 L
trough concentrations ([5]; 5, 10, 15 mg twice daily): dose proportional
dose ordering for the primary endpoint (trough clinic FEV1) ([5]; 5, 10, 15 mg twice daily, 4 weeks): No dose ordering
change in clinic trough FEV1, ITT analysis ([5]; any dose group (5, 10, 15 mg twice daily, 4 weeks)): No statistically significant change
